From patent US20230078764A1 (Yumanity Therapeutics, Inc., priority 2019, published 2023)

What was measured:
human SCD1 = biological target: T1, human SCD1 (Homo sapiens, UniProt O00767); test: Growth inhibition of yeast strain expressing human SCD1 as sole desaturase (OLE1 deleted), OD600 readout; assay type: cell-based; conditions: yeast strain expressing human SCD1 as sole desaturase; growth (OD600) after 40 h at 30° C.; read-out: SCD1 IC50
T1 construct: expressed in transfected cells; host or cells: yeast strain with OLE1 deleted, plasmid-borne human SCD1 (selected in SD-Ura)
T1 sequence (O00767 1-359): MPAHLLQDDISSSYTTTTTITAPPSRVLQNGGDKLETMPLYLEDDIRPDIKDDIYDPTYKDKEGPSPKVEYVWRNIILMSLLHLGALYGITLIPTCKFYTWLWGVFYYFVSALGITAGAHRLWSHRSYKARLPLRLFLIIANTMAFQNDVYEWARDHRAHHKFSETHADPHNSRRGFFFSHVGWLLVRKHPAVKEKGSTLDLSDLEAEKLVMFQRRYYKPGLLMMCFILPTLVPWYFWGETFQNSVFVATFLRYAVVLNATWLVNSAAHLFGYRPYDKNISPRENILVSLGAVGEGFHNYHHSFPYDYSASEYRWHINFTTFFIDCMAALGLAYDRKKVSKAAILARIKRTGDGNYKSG

human SCD5 = biological target: T2, human SCD5 (Homo sapiens, UniProt Q86SK9); test: Growth inhibition of yeast strain expressing human SCD5 as sole desaturase (OLE1 deleted), OD600 readout; assay type: cell-based; conditions: yeast strain expressing human SCD5 as sole desaturase; growth (OD600) after 40 h at 30° C.; read-out: SCD5 IC50
T2 construct: expressed in transfected cells; host or cells: yeast strain with OLE1 deleted, plasmid-borne human SCD5 (selected in SD-Ura)
T2 sequence (Q86SK9 1-330): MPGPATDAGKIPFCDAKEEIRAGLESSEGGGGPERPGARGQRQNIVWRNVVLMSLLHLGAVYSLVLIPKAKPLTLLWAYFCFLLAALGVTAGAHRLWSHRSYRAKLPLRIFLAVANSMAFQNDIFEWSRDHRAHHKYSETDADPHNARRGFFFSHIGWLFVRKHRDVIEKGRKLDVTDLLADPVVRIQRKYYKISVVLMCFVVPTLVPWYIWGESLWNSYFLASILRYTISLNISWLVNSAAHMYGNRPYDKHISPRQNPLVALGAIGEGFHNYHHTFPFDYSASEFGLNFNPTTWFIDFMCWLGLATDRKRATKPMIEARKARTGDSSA

Structure (SMILES) | IC50 (human SCD1) [nM] | IC50 (human SCD5) [nM]
Cn1nc(NC(=O)c2ccc(Cc3ccc(F)cc3)cn2)ccc1=O [Compound 495] | 560 | 15
Cn1cc(NC(=O)c2ccc(Cc3ccc(F)cc3)cn2)ccc1=O [Compound 496] | 222 | 10
N#Cc1ccc(C(=O)Nc2ccc(CNc3cccc(Cl)c3)cn2)nc1 [Compound 498] | 2700 | 5200
Cn1c(C(=O)Nc2ccc(Cc3ccc(F)c(F)c3)cn2)coc1=O [Compound 508] | 2600 | 450
Cn1c(C(=O)Nc2ccc(Cc3cc(F)cc(F)c3)cn2)coc1=O [Compound 509] | 430 | 120
Cn1ccc(C(=O)Nc2ccc(Cc3ccc(F)c(F)c3)cn2)cc1=O [Compound 515] | 5900 | 320
O=C(Nc1ccc(Cc2ccc(F)c(F)c2)cn1)c1ncc(Br)cn1 [Compound 518] | > 45000 | 1700
Cc1cc(C(=O)Nc2ccc(Cc3ccc(F)c(F)c3)cn2)nn(C)c1=O [Compound 523] | > 45000 | 110
Cc1cc(C(=O)Nc2ccc(Cc3cc(F)cc(F)c3)cn2)nn(C)c1=O [Compound 524] | > 45000 | 29
N#Cc1ncc(C(=O)Nc2ccc(Cc3ccc(F)c(F)c3)cn2)cn1 [Compound 525] | > 45000 | 550
N#Cc1ccc(NC(=O)c2ccc(Cc3cc(F)cc(F)c3)cn2)cn1 [Compound 526] | 99 | 10
Cn1nc(C(=O)Nc2ccc(Cc3cc(F)c(F)c(Cl)c3)cn2)ccc1=O [Compound 528] | 60 | 10
Cn1nccc(C(=O)Nc2ccc(Cc3cc(F)cc(F)c3)cn2)c1=O [Compound 532] | 10 | 10
Cn1ccc(C(=O)Nc2ccc(Cc3cc(F)cc(F)c3)cn2)cc1=O [Compound 533] | 220 | 10
Cn1nc(C(=O)Nc2ccc(Cc3ccc(F)cc3F)cn2)ccc1=O [Compound 537] | 17000 | 490
Cn1cc(C(=O)Nc2ccc(Cc3ccc(F)cc3F)cn2)ccc1=O [Compound 538] | 1600 | 180
Cn1nc(C(=O)Nc2ccc(Cc3cc(F)ccc3F)cn2)ccc1=O [Compound 539] | 3500 | 170
N#Cc1ccc(C(=O)Nc2ccc(Cc3ccc(F)c(F)c3)cn2)cn1 [Compound 541] | 6600 | 220
N#Cc1ccc(NC(=O)c2ccc(Cc3ccc(F)c(F)c3)cn2)cn1 [Compound 542] | 18000 | 10
Cn1cc(C(=O)Nc2ccc(Cc3cc(F)c(F)c(Cl)c3)cn2)ccc1=O [Compound 543] | 37 | 10
Cn1nccc(C(=O)Nc2ccc(Cc3ccc(F)c(F)c3)cn2)c1=O [Compound 547] | 240 | 10
N#Cc1cnc(C(=O)Nc2ccc(Cc3ccc(F)c(F)c3)cn2)nc1 [Compound 549] | > 45000 | 890
Cn1cc(C(=O)Nc2ccc(Cc3ccc(F)c(C#N)c3)cn2)ccc1=O [Compound 550] | 2400 | 370
Cn1nc(C(=O)Nc2ccc(Cc3cccc(F)c3F)cn2)ccc1=O [Compound 551] | > 45000 | 1200
Cn1cc(C(=O)Nc2ccc(Cc3cccc(F)c3F)cn2)ccc1=O [Compound 552] | 1900 | 360
Cn1nc(C(=O)Nc2ccc(Cc3cc(F)c(F)c(C#N)c3)cn2)ccc1=O [Compound 558] | 43000 | 64

The next lines start with the values.

IC50 (human SCD1) [nM] | IC50 (human SCD5) [nM] | Structure (SMILES)
10 | 10 | O=C(Nc1ccc(Cc2cccc(Cl)c2)cn1)c1cnc(CO)nc1 [Compound 494]
10 | 10 | O=C(Nc1ccc(Cc2cccc(F)c2)cn1)c1cc(CO)ccn1 [Compound 497]
10000 | 820 | C=C(c1ccc(C(=O)Nc2ccc(Cc3cccc(Cl)c3)cn2)cn1)C(F)(F)F [Compound 499]
> 45000 | 10 | N#Cc1cnc(C(=O)Nc2ccc(Cc3cccc(F)c3)cn2)nc1 [Compound 500]
10 | 10 | C#CCn1nc(C(=O)Nc2ccc(Cc3cccc(Cl)c3)cn2)ccc1=O [Compound 501]
> 45000 | 10 | CC(=O)c1ccc(C(=O)Nc2ccc(Cc3cccc(Cl)c3)cn2)nc1 [Compound 502]
12 | 10 | O=C(Nc1ccc(Cc2ccc(F)c(F)c2)cn1)c1cncc(CO)c1 [Compound 503]
2800 | 260 | O=C(Nc1ccc(Cc2cccc(F)c2)cn1)c1ncc(F)cn1 [Compound 504]
1500 | 14 | O=C(Nc1ccc(Cc2cccc(F)c2)cn1)c1ccnc(C2CC2)n1 [Compound 506]
980 | 1200 | CC(=O)c1ccc(C(=O)Nc2ccc(Cc3ccc(F)c(F)c3)cn2)nc1 [Compound 507]
100 | 77 | CC(O)c1ccc(C(=O)Nc2ccc(Cc3cccc(Cl)c3)cn2)nc1 (stereo not drawn) [Compound 510]
143 | 190 | CC(O)c1ccc(C(=O)Nc2ccc(Cc3ccc(F)c(F)c3)cn2)nc1 (stereo not drawn) [Compound 511]
49 | 60 | CC(O)c1ccc(C(=O)Nc2ccc(Cc3cccc(Cl)c3)cn2)nn1 (stereo not drawn) [Compound 512]
770 | 170 | CC(O)c1ccc(C(=O)Nc2ccc(Cc3cc(F)cc(F)c3)cn2)cn1 (stereo not drawn) [Compound 513]
2600 | 320 | CC(O)c1ccc(C(=O)Nc2ccc(Cc3ccc(F)c(F)c3)cn2)cn1 (stereo not drawn) [Compound 514]
960 | 770 | CC(=O)c1ccc(C(=O)Nc2ccc(Cc3ccc(F)c(F)c3)cn2)nn1 [Compound 516]
180 | 140 | CC(=O)c1ccc(C(=O)Nc2ccc(Cc3cccc(Cl)c3)cn2)nn1 [Compound 517]
880 | 220 | C[C@H](O)c1ccc(C(=O)Nc2ccc(Cc3cccc(Cl)c3)cn2)cn1 [Compound 519]
360 | 90 | C[C@@H](O)c1ccc(C(=O)Nc2ccc(Cc3cccc(Cl)c3)cn2)cn1 [Compound 520]

IC50 (human SCD1) [nM] | IC50 (human SCD5) [nM] | Structure (SMILES)
2500 | 5300 | C#Cn1nc(C(=O)Nc2ccc(Cc3cccc(Cl)c3)cn2)ccc1=O [Compound 521]
360 | 60 | CC(O)c1ccc(C(=O)Nc2ccc(Cc3ccc(F)c(Cl)c3)cn2)cn1 (stereo not drawn) [Compound 522]
> 45000 | 1300 | O=C(Nc1ccc(Cc2cccc(F)c2)cn1)c1cc2ncnc(Cl)c2s1 [Compound 527]
1100 | 670 | CC(O)c1ccc(C(=O)Nc2ccc(Cc3cccc(F)c3)cn2)cn1 (stereo not drawn) [Compound 529]
160 | 190 | CC(O)c1ccc(C(=O)Nc2ccc(Cc3ccc(F)c(F)c3)cn2)nn1 (stereo not drawn) [Compound 530]
1300 | 340 | CCc1cc(C(=O)Nc2ccc(Cc3cccc(F)c3)cn2)nn(C)c1=O [Compound 531]
6000 | 200 | N#Cc1ccc(C(=O)Nc2ccc(Cc3ccc(F)c(C#N)c3)cn2)nc1 [Compound 534]
> 45000 | 480 | N#Cc1cc(F)cc(Cc2ccc(NC(=O)c3ccc(C#N)nc3)nc2)c1 [Compound 535]
1000 | 110 | N#Cc1ccc(C(=O)Nc2ccc(Cc3cc(F)cc(C#N)c3)cn2)nc1 [Compound 536]
60 | 10 | Cn1nc(CO)cc1C(=O)Nc1ccc(Cc2cccc(F)c2)cn1 [Compound 540]
10 | 960 | O=C(Nc1ccc(Cc2cccc(F)c2)cn1)c1ncc(CO)cn1 [Compound 544]
710 | 100 | Cn1cc(C(=O)Nc2ccc(Cc3cccc(C(F)F)c3)cn2)ccc1=O [Compound 545]
320 | 27 | Cn1nccc(C(=O)Nc2ccc(Cc3cccc(F)c3)cn2)c1=O [Compound 546]
> 45000 | 3000 | Cn1ccc(C(=O)Nc2ccc(Cc3ccc(F)c(F)c3)cn2)nc1=O [Compound 548]
3200 | 8800 | O=C(O)c1cnc(C(=O)Nc2ccc(Cc3ccc(F)c(F)c3)cn2)cn1 [Compound 554]
740 | 10 | O=C(Nc1ccc(Cc2cccc(F)c2)cn1)c1cc2ncncc2s1 [Compound 555]
2300 | 10 | O=C(Nc1ccc(Cc2cccc(Cl)c2)cn1)c1cc2ncncc2s1 [Compound 556]
> 45000 | 1900 | O=C(Nc1ccc(Cc2cccc(Cl)c2)cn1)c1ccc(C2(O)CC2)nc1 [Compound 557]
